This note sets out measurements from US20240199587A1, “HETEROCYCLIC COMPOUNDS” (Hoffmann-La Roche Inc., priority 2021, published 2024).

pIC50: −log10 of the molar value.

This experiment addresses T1, MAGL (Homo sapiens, UniProt Q99685).
T1 sequence (Q99685 1-303): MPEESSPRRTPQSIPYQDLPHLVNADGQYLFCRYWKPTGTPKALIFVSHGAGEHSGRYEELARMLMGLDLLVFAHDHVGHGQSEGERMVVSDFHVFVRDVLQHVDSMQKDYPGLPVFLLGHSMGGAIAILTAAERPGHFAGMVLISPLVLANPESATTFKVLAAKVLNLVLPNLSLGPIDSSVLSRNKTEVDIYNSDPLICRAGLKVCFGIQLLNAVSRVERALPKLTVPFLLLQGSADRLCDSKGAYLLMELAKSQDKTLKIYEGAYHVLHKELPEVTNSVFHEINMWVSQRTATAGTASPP
Nature of the experiment: 2-AG assay (MAGL inhibitory activity, hydrolysis of 2-arachidonoylglycerol to arachidonic acid followed by mass spectrometry). The settings on record: 8 μM 2-arachidonoylglycerol, 15 min pre-incubation, 30 min incubation at RT, RapidFire MS readout. The experiment is classed as biochemical. In short, it runs like this:
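Human MAGL ([…] final) pre-incubated 15 min at RT with compound in 50 mM TRIS, 1 mM EDTA, 0.01% Tween-20, 2.5% DMSO; 8 μM 2-AG then added for 30 min at RT. Acetonitrile quench with d8-arachidonic acid; arachidonic acid measured by RapidFire SPE–MS/MS, activity from arachidonic acid/d8 ratio.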
What is called pIC50 is the negative decadic logarithm of the IC50, by convention in mol/L. A higher pIC50 goes with a small IC50. In turn, `CS(=O)(=O)c1cc(O[C@H]2C[C@@H]3CN(C(=O)N4CC5(CC(n6cnc(C7CC7)n6)C5)C4)C[C@@H]3C2)ccc1F` [Example 130, [6-(3-cyclopropyl-1,2,4-triazol-1-yl)-2-azaspiro[3.3]heptan-2-yl]-[rac-(3aS,6aR)-5-(4-fluoro-3-methylsulfonyl-phenoxy)-3,3a,4,5,6,6a-hexahydro-1H-cyclopenta[c]pyrrol-2-yl]methanone] showed a pIC50 of 7.32.

Take `COc1cc(O[C@H]2C[C@@H]3CN(C(=O)N4CC5(CC(n6cnc(C7CC7)n6)C5)C4)C[C@@H]3C2)ccc1F` [Example 131, [6-(3-cyclopropyl-1,2,4-triazol-1-yl)-2-azaspiro[3.3]heptan-2-yl]-[rac-(3aS,6aR)-5-(4-fluoro-3-methoxy-phenoxy)-3,3a,4,5,6,6a-hexahydro-1H-cyclopenta[c]pyrrol-2-yl]methanone]: the pIC50 was 8.23.

`O=C(N1C[C@H]2C[C@H](Oc3cc(C(F)(F)F)c(F)cc3F)C[C@H]2C1)N1CC2(CC(n3cnc(C4CC4)n3)C2)C1` [Example 132, [6-(3-cyclopropyl-1,2,4-triazol-1-yl)-2-azaspiro[3.3]heptan-2-yl]-[rac-(3aS,6aR)-5-[2,4-difluoro-5-(trifluoromethyl)phenoxy]-3,3a,4,5,6,6a-hexahydro-1H-cyclopenta[c]pyrrol-2-yl]methanone] had a pIC50 of 8.77. Compared with the last compound, the pIC50 is 0.54 log units higher.

`O=C(N1C[C@H]2C[C@H](Oc3ccc(F)c(OC(F)(F)F)c3)C[C@H]2C1)N1CC2(CC(n3cnc(C4CC4)n3)C2)C1` [Example 133, [6-(3-cyclopropyl-1,2,4-triazol-1-yl)-2-azaspiro[3.3]heptan-2-yl]-[rac-(3aS,6aR)-5-[4-fluoro-3-(trifluoromethoxy)phenoxy]-3,3a,4,5,6,6a-hexahydro-1H-cyclopenta[c]pyrrol-2-yl]methanone]: the pIC50 is 8.89.

`O=C(N1C[C@H]2C[C@H](Oc3ccc(OC(F)(F)F)cc3)C[C@H]2C1)N1CC2(CC(n3cnc(C4CC4)n3)C2)C1` [Example 134, [6-(3-cyclopropyl-1,2,4-triazol-1-yl)-2-azaspiro[3.3]heptan-2-yl]-[rac-(3aS,6aR)-5-[4-(trifluoromethoxy)phenoxy]-3,3a,4,5,6,6a-hexahydro-1H-cyclopenta[c]pyrrol-2-yl]methanone] gave a pIC50 of 8.37. Compared with the last compound, the pIC50 is 0.52 log units lower.

Turning to `O=C(N1C[C@H]2C[C@H](Oc3ccc(OC(F)(F)F)c(F)c3)C[C@H]2C1)N1CC2(CC(n3cnc(C4CC4)n3)C2)C1` [Example 135, [6-(3-cyclopropyl-1,2,4-triazol-1-yl)-2-azaspiro[3.3]heptan-2-yl]-[rac-(3aS,6aR)-5-[3-fluoro-4-(trifluoromethoxy)phenoxy]-3,3a,4,5,6,6a-hexahydro-1H-cyclopenta[c]pyrrol-2-yl]methanone], the pIC50 was 8.51.

The compound `O=C(N1CC(OCc2cncc(C(F)(F)F)c2)C1)N1CC2(CC(n3cnc(C4CC4)n3)C2)C1` [Example 136, [6-(3-cyclopropyl-1,2,4-triazol-1-yl)-2-azaspiro[3.3]heptan-2-yl]-[3-[[5-(trifluoromethyl)-3-pyridyl]methoxy]azetidin-1-yl]methanone] showed a negative logarithm of the IC50 (pIC50) of 7.85. This pIC50 lies 0.66 log units lower than the previous one.

Take `O=C(N1CC2(CC(OCC3(C(F)(F)F)CC3)C2)C1)N1CC2(CC(n3cnc(C4CC4)n3)C2)C1` [Example 137, [6-(3-cyclopropyl-1,2,4-triazol-1-yl)-2-azaspiro[3.3]heptan-2-yl]-[6-[[1-(trifluoromethyl)cyclo-propyl]methoxy]-2-azaspiro[3.3]heptan-2-yl]methanone]: the pIC50 is 8.35.

For the compound `CC1C(OCc2ccc(C(F)(F)F)cc2)CN1C(=O)N1CC2(CC(n3cnc(C4CC4)n3)C2)C1` (stereo not shown) [Example 138, [6-(3-cyclopropyl-1,2,4-triazol-1-yl)-2-azaspiro[3.3]heptan-2-yl]-[2-methyl-3-[[4-(trifluoromethyl)phenyl]methoxy]azetidin-1-yl]methanone], the pIC50 is 9.10.

For the compound `O=C(N1CC(C#Cc2ccccc2C(F)F)C1)N1CC2(CC(n3cnc(C4CC4)c3)C2)C1` [Example 139, [6-(4-cyclopropylimidazol-1-yl)-2-azaspiro[3.3]heptan-2-yl]−[3-[2-[2-(difluoromethyl)phenyl]ethynyl]azetidin-1-yl]methanone], the pIC50 was 7.94.

The compound `O=C(N1CC(c2noc(C3(C(F)(F)F)CC3)n2)C1)N1CC2(CC(n3cnc(C4CC4)n3)C2)C1` [Example 140, [6-(3-cyclopropyl-1,2,4-triazol-1-yl)-2-azaspiro[3.3]heptan-2-yl]-[3-[5-[1-(trifluoromethyl)cyclo-propyl]-1,2,4-oxadiazol-3-yl]azetidin-1-yl]methanone] showed a pIC50 of 7.21.

For the compound `O=C(N1CC(c2noc(C3(C(F)(F)F)CC3)n2)C1)N1CC2(CC(n3cnc(C4CC4)c3)C2)C1` [Example 141], the pIC50 is 6.48.

Take `Cc1cc(C(=O)N2CC3(CC(n4cnc(C5CC5)c4)C3)C2)cnc1OCC1(C)CC1` [Example 142, [6-(4-cyclopropylimidazol-1-yl)-2-azaspiro[3.3]heptan-2-yl]−[5-methyl-6-[(1-methylcyclopropyl)methoxy]-3-pyridyl]methanone]: the pIC50 was 7.50.

With `Cc1cc(C(=O)N2CC3(CC(n4cnc(C5CC5)n4)C3)C2)cnc1OCC1(C)CC1` [Example 143, [6-(3-cyclopropyl-1,2,4-triazol-1-yl)-2-azaspiro[3.3]heptan-2-yl]-[5-methyl-6-[(1-methylcyclopropyl)methoxy]-3-pyridyl]methanone], the pIC50 is 7.27.

`O=C(N1CC(n2cc(OCC(F)(F)F)cn2)C1)N1CC2(CC(n3cnc(C4CC4)c3)C2)C1` [Example 144, [6-(4-cyclopropylimidazol-1-yl)-2-azaspiro[3.3]heptan-2-yl]-[3-[4-(2,2,2-trifluoroethoxy)pyrazol-1-yl]azetidin-1-yl]methanone] had a pIC50 of 6.22.

Regarding `O=C(N1CC(c2nnc(C3(C(F)(F)F)CC3)o2)C1)N1CC2(CC(n3cnc(C4CC4)n3)C2)C1` [Example 145, [6-(3-cyclopropyl-1,2,4-triazol-1-yl)-2-azaspiro[3.3]heptan-2-yl]-[3-[5-[1-(trifluoromethyl)cyclo-propyl]-1,3,4-oxadiazol-2-yl]azetidin-1-yl]methanone], the pIC50 was 6.27.

`Cc1cnn(C2CC3(C2)CN(C(=O)c2ccc(-c4noc(C(C)(C)C)n4)cc2)C3)c1` [Example 146, [4-(5-tert-butyl-1,2,4-oxadiazol-3-yl)phenyl]−[6-(4-methylpyrazol-1-yl)-2-azaspiro[3.3]heptan-2-yl]methanone] showed a pIC50 of 6.40.

`Cc1cnn(C2CC3(C2)CN(C(=O)c2cnc(OCC4(C(F)(F)F)CC4)c(C)c2)C3)c1` [Example 147, [6-(4-methylpyrazol-1-yl)-2-azaspiro[3.3]heptan-2-yl]-[5-methyl-6-[[1-(trifluoromethyl)cyclopropyl]methoxy]-3-pyridyl]methanone]: the negative-log IC50 (pIC50) was 6.47. The pIC50 values of the last two compounds are within 0.2 log units of each other.

For the compound `Cc1ccn(C2CC3(C2)CN(C(=O)c2ccc(-c4noc(C(C)(C)C)n4)cc2)C3)n1` [Example 148, [4-(5-tert-butyl-1,2,4-oxadiazol-3-yl)phenyl]-[6-(3-methylpyrazol-1-yl)-2-azaspiro[3.3]heptan-2-yl]methanone], the pIC50 is 5.85.

Compound `O=C(N1CC2(CC(n3cnc(C4CC4)n3)C2)C1)N1CCC(OCC2(C(F)(F)F)CC2)C2(CC2)C1` (stereo not shown) [Example 149, [6-(3-cyclopropyl-1,2,4-triazol-1-yl)-2-azaspiro13.31heptan-2-yl]−[8-[[1-(trifluoromethyl)cyclopropyl]methoxy]-5-azaspiro[2.5]octan-5-yl]methanone] showed a pIC50 of 6.36. This pIC50 is 0.51 log units higher than that of the compound before.

In turn, `O=C(N1CC2(CC(n3cnc(C4CC4)n3)C2)C1)N1CCC(OCC2(C(F)(F)F)CC2)C(F)(F)C1` (stereo not shown) [Example 150, [6-(3-cyclopropyl-1,2,4-triazol-1-yl)-2-azaspiro[3.3]heptan-2-yl]-[3,3-difluoro-4-[[1-(trifluoromethyl)cyclopropyl]methoxy]-1-piperidyl]methanone] showed a negative-log IC50 (pIC50) of 6.79.

The compound `Cc1cc(C(=O)N2CC3(CC(n4ccc(C5CC5)n4)C3)C2)cnc1OCC1(C(F)(F)F)CC1` [Example 151, [6-(3-cyclopropylpyrazol-1-yl)-2-azaspiro[3.3]heptan-2-yl]-[5-methyl-6-[[1-(trifluoromethyl)cyclopropyl]methoxy]-3-pyridyl]methanone] gave a pIC50 of 7.17.

`Cc1cc(C(=O)N2CC3(CC(n4ccc(C5CC5)n4)C3)C2)cnc1OC(C)(C)C(F)(F)F` [Example 152, [6-(3-cyclopropylpyrazol-1-yl)-2-azaspiro[3.3]heptan-2-yl]-[5-methyl-6-(2,2,2-trifluoro-1,1-dimethyl-ethoxy)-3-pyridyl]methanone] showed a pIC50 of 6.51.

`O=C(c1cnc(OCC2(C(F)(F)F)CC2)c(C(F)(F)F)c1)N1CC2(CC(n3cnc(C4CC4)n3)C2)C1` [Example 153, [6-(3-cyclopropyl-1,2,4-triazol-1-yl)-2-azaspiro[3.3]heptan-2-yl]−[5-(trifluoromethyl)-6-[[1-(trifluoromethyl)cyclopropyl]methoxy]-3-pyridyl]methanone] showed a pIC50 of 7.83.

Compound `O=C(c1cnc(OCC2(C(F)(F)F)CC2)c(C2COC2)c1)N1CC2(CC(n3cnc(C4CC4)n3)C2)C1` [Example 154, [6-(3-cyclopropyl-1,2,4-triazol-1-yl)-2-azaspiro[3.3]heptan-2-yl]−[5-(oxetan-3-yl)-6-[[1-(trifluoromethyl)cyclopropyl]methoxy]-3-pyridyl]methanone] gave a pIC50 of 8.00. This pIC50 and that of the compound before are within 0.2 log units of each other.
